Experiments:
Format in all cases: cell-based
Conditions in all cases: compounds at 50 nM and 500 nM
IKZF1 = biological target: T1, IKZF1 (Homo sapiens, UniProt Q13422+Q96SW2); test: Western blot degradation of IKZF1 in hPBMCs (24 h)
T1 construct: The supernatant was aspirated as the extracted total cell protein; endogenous in cells; host or cells: human peripheral blood mononuclear cells (hPBMCs)
Method in brief: (§1)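 Immunoblot densitometry quantifies target loss in hPBMCs after a 24 h compound exposure (50 nM, 500 nM). Percent remaining is normalised band intensity; DC50 is the concentration giving half the DMSO-control band grayscale.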

GSPT1 = biological target: T2, GSPT1 (Homo sapiens, UniProt P15170+Q96SW2); test: Western blot degradation of GSPT1 in hPBMCs (24 h)
T2 construct: The supernatant was aspirated as the extracted total cell protein; endogenous in cells; host or cells: human peripheral blood mononuclear cells (hPBMCs)
Method in brief: as §1

CK1α = biological target: T3, CK1α (Homo sapiens, UniProt P48729+Q96SW2); test: Western blot degradation of CK1α in hPBMCs (24 h)
T3 construct: The supernatant was aspirated as the extracted total cell protein; endogenous in cells; host or cells: human peripheral blood mononuclear cells (hPBMCs)
Method in brief: as §1

WEE1 = biological target: T4, WEE1 (Homo sapiens, UniProt P30291+Q96SW2); test: Western blot degradation of WEE1 in hPBMCs (24 h)
T4 construct: The supernatant was aspirated as the extracted total cell protein; endogenous in cells; host or cells: human peripheral blood mononuclear cells (hPBMCs)
Method in brief: as §1

IKZF3 = biological target: T5, IKZF3 (Homo sapiens, UniProt Q96SW2+Q9UKT9); test: Western blot degradation of IKZF3 in hPBMCs (24 h)
T5 construct: The supernatant was aspirated as the extracted total cell protein; endogenous in cells; host or cells: human peripheral blood mononuclear cells (hPBMCs)
Method in brief: as §1

IKZF2 = biological target: T6, IKZF2 (Homo sapiens, UniProt Q96SW2+Q9UKS7); test: Western blot degradation of IKZF2 in hPBMCs (24 h)
T6 construct: The supernatant was aspirated as the extracted total cell protein; endogenous in cells; host or cells: human peripheral blood mononuclear cells (hPBMCs)
Method in brief: as §1

T6 sequence (Q9UKS7 whole entry): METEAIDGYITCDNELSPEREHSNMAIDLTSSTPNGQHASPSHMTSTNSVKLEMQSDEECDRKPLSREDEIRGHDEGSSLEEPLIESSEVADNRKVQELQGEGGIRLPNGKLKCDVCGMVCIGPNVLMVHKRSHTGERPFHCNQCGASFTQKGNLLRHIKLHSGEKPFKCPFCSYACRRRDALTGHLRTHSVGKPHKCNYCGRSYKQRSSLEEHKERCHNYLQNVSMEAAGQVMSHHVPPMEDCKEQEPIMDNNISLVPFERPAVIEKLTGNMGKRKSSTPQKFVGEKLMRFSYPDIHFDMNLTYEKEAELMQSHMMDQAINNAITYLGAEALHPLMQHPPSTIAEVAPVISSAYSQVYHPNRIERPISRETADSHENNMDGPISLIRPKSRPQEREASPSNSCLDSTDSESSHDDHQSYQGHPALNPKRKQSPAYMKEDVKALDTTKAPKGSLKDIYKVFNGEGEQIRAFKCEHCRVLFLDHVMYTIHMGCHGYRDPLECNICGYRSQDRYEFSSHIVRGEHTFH
T6 sequence (Q96SW2 whole entry): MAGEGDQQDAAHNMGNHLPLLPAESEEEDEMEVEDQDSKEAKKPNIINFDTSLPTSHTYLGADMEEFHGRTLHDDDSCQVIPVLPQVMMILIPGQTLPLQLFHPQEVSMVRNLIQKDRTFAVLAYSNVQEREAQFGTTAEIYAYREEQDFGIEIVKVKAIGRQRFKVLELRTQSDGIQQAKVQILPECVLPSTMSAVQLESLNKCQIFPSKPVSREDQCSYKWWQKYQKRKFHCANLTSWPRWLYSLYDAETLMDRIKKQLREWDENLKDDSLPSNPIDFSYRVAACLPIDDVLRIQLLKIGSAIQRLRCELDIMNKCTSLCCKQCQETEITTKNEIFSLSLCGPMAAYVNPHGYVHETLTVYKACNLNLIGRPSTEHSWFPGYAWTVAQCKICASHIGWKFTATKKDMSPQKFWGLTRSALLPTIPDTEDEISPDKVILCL
T6 sequence (Q16531 whole entry partner): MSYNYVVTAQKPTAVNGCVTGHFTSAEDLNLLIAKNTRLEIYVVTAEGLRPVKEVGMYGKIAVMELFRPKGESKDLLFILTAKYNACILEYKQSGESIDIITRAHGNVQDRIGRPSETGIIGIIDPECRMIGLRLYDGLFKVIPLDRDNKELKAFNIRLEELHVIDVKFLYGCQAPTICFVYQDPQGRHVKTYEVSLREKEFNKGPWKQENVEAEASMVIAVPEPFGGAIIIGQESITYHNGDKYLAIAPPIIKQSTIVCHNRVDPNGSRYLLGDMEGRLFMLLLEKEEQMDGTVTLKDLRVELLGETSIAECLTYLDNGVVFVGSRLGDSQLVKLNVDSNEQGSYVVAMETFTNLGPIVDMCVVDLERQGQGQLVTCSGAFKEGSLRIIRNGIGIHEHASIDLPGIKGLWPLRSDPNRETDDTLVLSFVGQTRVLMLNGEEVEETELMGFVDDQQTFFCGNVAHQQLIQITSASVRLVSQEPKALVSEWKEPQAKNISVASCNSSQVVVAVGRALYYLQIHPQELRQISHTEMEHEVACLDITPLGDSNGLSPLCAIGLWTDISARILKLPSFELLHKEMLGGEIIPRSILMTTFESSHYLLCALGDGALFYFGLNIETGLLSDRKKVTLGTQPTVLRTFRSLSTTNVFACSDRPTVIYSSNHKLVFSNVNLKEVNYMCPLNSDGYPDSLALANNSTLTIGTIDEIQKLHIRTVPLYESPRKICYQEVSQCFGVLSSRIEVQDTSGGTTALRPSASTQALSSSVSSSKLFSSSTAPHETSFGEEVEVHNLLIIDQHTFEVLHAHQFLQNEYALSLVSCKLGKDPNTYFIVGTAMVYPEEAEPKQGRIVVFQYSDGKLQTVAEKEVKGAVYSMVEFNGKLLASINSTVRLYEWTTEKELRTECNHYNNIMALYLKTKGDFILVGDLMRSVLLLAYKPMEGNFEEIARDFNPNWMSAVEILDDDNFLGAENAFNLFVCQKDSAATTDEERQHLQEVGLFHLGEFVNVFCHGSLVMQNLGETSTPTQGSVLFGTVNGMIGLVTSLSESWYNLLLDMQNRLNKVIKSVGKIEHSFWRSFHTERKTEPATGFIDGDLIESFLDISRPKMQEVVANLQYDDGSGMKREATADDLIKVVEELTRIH
T5 sequence (Q9UKT9 whole entry): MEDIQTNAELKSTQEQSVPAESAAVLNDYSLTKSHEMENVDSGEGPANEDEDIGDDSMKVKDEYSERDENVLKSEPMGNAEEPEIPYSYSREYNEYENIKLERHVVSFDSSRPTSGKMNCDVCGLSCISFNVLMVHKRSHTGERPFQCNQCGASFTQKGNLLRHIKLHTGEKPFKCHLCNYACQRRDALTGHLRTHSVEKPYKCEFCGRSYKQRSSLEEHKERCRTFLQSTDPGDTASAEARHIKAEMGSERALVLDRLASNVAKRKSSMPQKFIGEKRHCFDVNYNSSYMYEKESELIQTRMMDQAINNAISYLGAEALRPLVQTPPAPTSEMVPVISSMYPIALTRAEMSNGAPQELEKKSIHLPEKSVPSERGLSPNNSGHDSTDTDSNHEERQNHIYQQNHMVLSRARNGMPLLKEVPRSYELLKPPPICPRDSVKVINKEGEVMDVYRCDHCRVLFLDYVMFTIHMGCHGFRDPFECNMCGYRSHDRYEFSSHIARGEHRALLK
T5 sequence (Q96SW2 whole entry): as the sequence (Q96SW2 whole entry) above
T5 sequence (Q16531 whole entry partner): as the sequence (Q16531 whole entry partner) above
T4 sequence (P30291 whole entry): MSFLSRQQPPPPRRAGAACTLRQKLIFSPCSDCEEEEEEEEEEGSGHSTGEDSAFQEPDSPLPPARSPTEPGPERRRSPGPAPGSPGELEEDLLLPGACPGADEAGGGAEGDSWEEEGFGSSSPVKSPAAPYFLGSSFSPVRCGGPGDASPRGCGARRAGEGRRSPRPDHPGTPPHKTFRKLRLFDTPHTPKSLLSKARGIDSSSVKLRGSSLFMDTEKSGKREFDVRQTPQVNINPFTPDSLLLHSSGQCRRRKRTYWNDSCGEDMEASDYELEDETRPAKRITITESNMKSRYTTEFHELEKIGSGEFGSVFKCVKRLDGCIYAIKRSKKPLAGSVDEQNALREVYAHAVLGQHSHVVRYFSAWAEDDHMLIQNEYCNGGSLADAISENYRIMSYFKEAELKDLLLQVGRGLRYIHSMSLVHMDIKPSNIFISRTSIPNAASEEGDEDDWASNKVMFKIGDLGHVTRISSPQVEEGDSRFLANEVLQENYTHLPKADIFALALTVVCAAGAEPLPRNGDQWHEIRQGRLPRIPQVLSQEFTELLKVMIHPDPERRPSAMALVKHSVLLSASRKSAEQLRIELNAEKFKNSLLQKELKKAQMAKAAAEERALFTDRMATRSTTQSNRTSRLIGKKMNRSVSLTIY
T4 sequence (Q96SW2 whole entry): as the sequence (Q96SW2 whole entry) above
T4 sequence (Q16531 whole entry partner): as the sequence (Q16531 whole entry partner) above
T3 sequence (P48729 whole entry): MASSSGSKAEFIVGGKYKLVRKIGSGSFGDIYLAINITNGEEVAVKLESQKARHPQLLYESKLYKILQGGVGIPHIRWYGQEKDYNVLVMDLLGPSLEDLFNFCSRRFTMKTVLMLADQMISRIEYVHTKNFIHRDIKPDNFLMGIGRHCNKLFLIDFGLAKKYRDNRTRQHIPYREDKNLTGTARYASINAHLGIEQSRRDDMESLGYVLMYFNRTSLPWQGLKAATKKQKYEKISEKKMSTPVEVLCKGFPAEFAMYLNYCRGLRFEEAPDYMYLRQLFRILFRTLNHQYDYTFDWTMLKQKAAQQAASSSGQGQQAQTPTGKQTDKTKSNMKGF
T3 sequence (Q96SW2 whole entry): as the sequence (Q96SW2 whole entry) above
T3 sequence (Q16531 whole entry partner): as the sequence (Q16531 whole entry partner) above
T1 sequence (Q13422 whole entry): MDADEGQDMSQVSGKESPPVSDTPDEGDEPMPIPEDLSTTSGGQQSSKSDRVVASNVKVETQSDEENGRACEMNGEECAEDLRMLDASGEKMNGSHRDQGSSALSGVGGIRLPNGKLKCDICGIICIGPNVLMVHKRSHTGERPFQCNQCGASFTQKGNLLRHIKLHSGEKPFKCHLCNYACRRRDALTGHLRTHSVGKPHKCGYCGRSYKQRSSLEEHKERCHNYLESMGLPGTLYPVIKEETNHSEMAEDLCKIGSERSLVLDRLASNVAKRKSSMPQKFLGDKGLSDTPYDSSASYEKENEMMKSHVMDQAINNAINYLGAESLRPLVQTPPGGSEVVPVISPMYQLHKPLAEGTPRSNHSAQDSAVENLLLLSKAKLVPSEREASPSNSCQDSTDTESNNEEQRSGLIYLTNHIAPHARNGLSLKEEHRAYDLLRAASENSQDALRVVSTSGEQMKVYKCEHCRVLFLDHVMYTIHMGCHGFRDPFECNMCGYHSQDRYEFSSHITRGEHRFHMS
T1 sequence (Q96SW2 whole entry): as the sequence (Q96SW2 whole entry) above
T1 sequence (Q16531 whole entry partner): as the sequence (Q16531 whole entry partner) above

Row | Structure (SMILES) | IKZF1 substrate protein remaining % (IKZF1) | GSPT1 substrate protein remaining % (GSPT1) | CK1α substrate protein remaining % (CK1α) | WEE1 substrate protein remaining % (WEE1) | IKZF3 substrate protein remaining % (IKZF3) | IKZF2 substrate protein remaining % (IKZF2)
1 | Cc1ccsc1C1CCN(Cc2ccc3c(c2)CN(N2CCC(=O)NC2=O)C3=O)CC1 [GT-07305, 1-(5-((4-(3-methylthiophen-2-yl)piperidin-1-yl)methyl)-1-oxoisoindolin-2-yl)dihydropyrimidine-2,4(1H,3H)-dione] | B (80%< substrate protein remaining % ≤100%) | A (0% ≤ substrate protein remaining % ≤80%) | B (80%< substrate protein remaining % ≤100%) | B (80%< substrate protein remaining % ≤100%) | A (0% ≤ substrate protein remaining % ≤80%) | A (0% ≤ substrate protein remaining % ≤80%)
2 | Cc1ccsc1C1CCN(Cc2ccc3c(c2)C(=O)N(N2CCC(=O)NC2=O)C3=O)CC1 [GT-07306, 2-(2,4-dioxotetrahydropyrimidin-1(2H)-yl)-5-((4-(3-methylthiophen-2-yl)piperidin-1-yl)methyl)isoindoline-1,3-dione] | B (80%< substrate protein remaining % ≤100%) | A (0% ≤ substrate protein remaining % ≤80%) | B (80%< substrate protein remaining % ≤100%) | B (80%< substrate protein remaining % ≤100%) | A (0% ≤ substrate protein remaining % ≤80%) | B (80%< substrate protein remaining % ≤100%)
3 | CC1(C)CCC(CN2CC3CC2CN3Cc2ccc3c(c2)CN(N2CCC(=O)NC2=O)C3=O)=C(c2ccc(Cl)cc2)C1 (stereo not drawn) [GT-07329, 1-(5-((5-((4′-chloro-5,5-dimethyl-3,4,5,6-tetrahydro-[1,1′-biphenyl]-2-yl)methyl)-2,5-diazabicyclo[2.2.1]heptan-2-yl)methyl)-1-oxoisoindolin-2-yl)dihydropyrimidine-2,4(1H,3H)-dione] | B (80%< substrate protein remaining % ≤100%) | A (0% ≤ substrate protein remaining % ≤80%) | B (80%< substrate protein remaining % ≤100%) | A (0% ≤ substrate protein remaining % ≤80%) | B (80%< substrate protein remaining % ≤100%) | B (80%< substrate protein remaining % ≤100%)
4 | CC1(C)CCC(CN2CC3CCC(C2)N3Cc2ccc3c(c2)CN(N2CCC(=O)NC2=O)C3=O)=C(c2ccc(Cl)cc2)C1 [GT-07330, 1-(5-((3-((4′-chloro-5,5-dimethyl-3,4,5,6-tetrahydro-[1,1′-biphenyl]-2-yl)methyl)-3,8-diazabicyclo[3.2.1]octan-8-yl)methyl)-1-oxoisoindolin-2-yl)dihydropyrimidine-2,4(1H,3H)-dione] | A (0% ≤ substrate protein remaining % ≤80%) | A (0% ≤ substrate protein remaining % ≤80%) | B (80%< substrate protein remaining % ≤100%) | A (0% ≤ substrate protein remaining % ≤80%) | A (0% ≤ substrate protein remaining % ≤80%) | A (0% ≤ substrate protein remaining % ≤80%)
5 | CC1(C)CCC(CN2CC3CCC2CN3Cc2ccc3c(c2)CN(N2CCC(=O)NC2=O)C3=O)=C(c2ccc(Cl)cc2)C1 (stereo not drawn) [GT-07331, 1-(5-((5-((4′-chloro-5,5-dimethyl-3,4,5,6-tetrahydro-[1,1′-biphenyl]-2-yl)methyl)-2,5-diazabicyclo[2.2.2]octan-2-yl)methyl)-1-oxoisoindolin-2-yl)dihydropyrimidine-2,4(1H,3H)-dione] | A (0% ≤ substrate protein remaining % ≤80%) | A (0% ≤ substrate protein remaining % ≤80%) | A (0% ≤ substrate protein remaining % ≤80%) | A (0% ≤ substrate protein remaining % ≤80%) | A (0% ≤ substrate protein remaining % ≤80%) | B (80%< substrate protein remaining % ≤100%)
6 | CC1(C)CC(c2ccc(Cl)cc2)=C(CN2CCN(Cc3ccc4c(c3)CN(N3CCC(=O)NC3=O)C4=O)CC2)CO1 [GT-07332, 1-(5-((4-((4-(4-chlorophenyl)-6,6-dimethyl-5,6-dihydro-2H-pyran-3-yl)methyl)piperazin-1-yl)methyl)-1-oxoisoindolin-2-yl)dihydropyrimidine-2,4(1H,3H)-dione] | A (0% ≤ substrate protein remaining % ≤80%) | A (0% ≤ substrate protein remaining % ≤80%) | B (80%< substrate protein remaining % ≤100%) | A (0% ≤ substrate protein remaining % ≤80%) | A (0% ≤ substrate protein remaining % ≤80%) | B (80%< substrate protein remaining % ≤100%)
7 | CC1(C)CCC(CN2CC3CCC(C2)N3Cc2ccc3c(c2)C(=O)N(N2CCC(=O)NC2=O)C3=O)=C(c2ccc(Cl)cc2)C1 [GT-07333, 5-((3-((4′-chloro-5,5-dimethyl-3,4,5,6-tetrahydro-[1,1′-biphenyl]-2-yl)methyl)-3,8-diazabicyclo[3.2.1]octan-8-yl)methyl)-2-(2,4-dioxotetrahydropyrimidin-1(2H)-yl)isoindoline-1,3-dione] | B (80%< substrate protein remaining % ≤100%) | A (0% ≤ substrate protein remaining % ≤80%) | B (80%< substrate protein remaining % ≤100%) | B (80%< substrate protein remaining % ≤100%) | B (80%< substrate protein remaining % ≤100%) | B (80%< substrate protein remaining % ≤100%)
8 | CC1(C)CCC(CN2CC3CC2CN3Cc2ccc3c(c2)C(=O)N(N2CCC(=O)NC2=O)C3=O)=C(c2ccc(Cl)cc2)C1 (stereo not drawn) [GT-07334, 5-((5-((4′-chloro-5,5-dimethyl-3,4,5,6-tetrahydro-[1,1′-biphenyl]-2-yl)methyl)-2,5-diazabicyclo[2.2.1]heptan-2-yl)methyl)-2-(2,4-dioxotetrahydropyrimidin-1(2H)-yl)isoindoline-1,3-dione] | B (80%< substrate protein remaining % ≤100%) | B (80%< substrate protein remaining % ≤100%) | A (0% ≤ substrate protein remaining % ≤80%) | A (0% ≤ substrate protein remaining % ≤80%) | B (80%< substrate protein remaining % ≤100%) | B (80%< substrate protein remaining % ≤100%)
9 | Cc1cscc1C1CCN(Cc2ccc3c(c2)CN(N2CCC(=O)NC2=O)C3=O)CC1 [GT-07372, 1-(5-((4-(4-methylthiophen-3-yl)piperidin-1-yl)methyl)-1-oxoisoindolin-2-yl)dihydropyrimidine-2,4(1H,3H)-dione] | B (80%< substrate protein remaining % ≤100%) | A (0% ≤ substrate protein remaining % ≤80%) | B (80%< substrate protein remaining % ≤100%) | B (80%< substrate protein remaining % ≤100%) | A (0% ≤ substrate protein remaining % ≤80%) | B (80%< substrate protein remaining % ≤100%)
10 | Cc1cc(C2CCN(Cc3ccc4c(c3)CN(N3CCC(=O)NC3=O)C4=O)CC2)cs1 [GT-07373, 1-(5-((4-(5-methylthiophen-3-yl)piperidin-1-yl)methyl)-1-oxoisoindolin-2-yl)dihydropyrimidine-2,4(1H,3H)-dione] | B (80%< substrate protein remaining % ≤100%) | A (0% ≤ substrate protein remaining % ≤80%) | B (80%< substrate protein remaining % ≤100%) | B (80%< substrate protein remaining % ≤100%) | A (0% ≤ substrate protein remaining % ≤80%) | B (80%< substrate protein remaining % ≤100%)
11 | O=C1CCN(N2Cc3cc(CN4CCC(c5ccco5)CC4)ccc3C2=O)C(=O)N1 [GT-07374, 1-(5-((4-(furan-2-y1)piperidin-1-yl)methyl)-1-oxoisoindolin-2-yl)dihydropyrimidine-2,4(1H,3H)-dione] | B (80%< substrate protein remaining % ≤100%) | A (0% ≤ substrate protein remaining % ≤80%) | A (0% ≤ substrate protein remaining % ≤80%) | B (80%< substrate protein remaining % ≤100%) | B (80%< substrate protein remaining % ≤100%) | B (80%< substrate protein remaining % ≤100%)

Source: patent US20260356819A1, “OXOISOINDOLINYL-SUBSTITUTED […] DERIVATIVE AND USE THEREOF” (GLUETACS THERAPEUTICS (SHANGHAI) CO., LTD., priority 2023, published 2026)
